Assay in all cases: In vitro assay of antibacterial activity (agar dilution MIC)
Holding throughout (type): cell-based
(In general: In agar dilution the substance is mixed into plates at graded concentrations.)

One experiment relates to ESCHERICHIA COLI DC-2. To be noted: BHI agar, 35-37 °C for 20 to 24 hours, unit assumed. As for the experimental part:
(§1) Representative compounds of the present invention were assayed in vitro for antibacterial activity as follows: Twelve petri dishes containing successive aqueous dilutions of the test compound mixed with 10 mL of sterilized Brain Heart Infusion (BHI) agar (Difco 0418-01-5) were prepared. Each plate was inoculated with 1:100 (or 1:10 for slow-growing strains, such as Micrococcus and Streptococcus) dilutions of up to 32 different microorganisms, using a Steers replicator block. The inoculated plates were incubated at 35-37 °C for 20 to 24 hours. In addition, a control plate, using BHI agar containing no test compound, was prepared and incubated at the beginning and end of each test.
(§2) An additional plate containing a compound having known susceptibility patterns for the organisms being tested and belonging to the same antibiotic class as the test compound was also prepared and incubated as a further control, as well as to provide test-to-test comparability. Erythromycin A was used for this purpose.
(§3) After incubation, each plate was visually inspected. The minimum inhibitory concentration (MIC) was defined as the lowest concentration of drug yielding no growth, a slight haze, or sparsely isolated colonies on the inoculum spot as compared to the growth control.

A further experiment deals with M[…] ATCC 4698. To be noted: MICROCOCCUS LUTEUS ATCC 4698; BHI agar, 35-37 °C for 20 to 24 hours; unit assumed. As for the experimental part:
as §1, §2, §3

For experiment [1], the system named is STAPHYLOCOCCUS AUREUS CMX 642A. The conditions noted are these: BHI agar, 35-37 °C for 20 to 24 hours, unit assumed. As to the method: as §1, §2, §3
The subject of experiment [2] is STAPHYLOCOCCUS AUREUS ATCC 6538P. To be noted: BHI agar, 35-37 °C for 20 to 24 hours, unit assumed. As for the experimental part:
as §1, §2, §3

For the next experiment, the system named is ESCHERICHIA COLI SS. To be noted: ESCHERICHIA COLI SS; BHI agar, 35-37 °C for 20 to 24 hours; unit assumed. As to the method:
as §1, §2, §3

Experiment [3] concerns MYCOBACTERIUM SMEGMATIS ATCC 114. To be noted: MYCOBACTERIUM SMEGMATIS ATCC 114; BHI agar, 35-37 °C for 20 to 24 hours; unit assumed. As for the experimental part: as §1, §2, §3
For experiment [4], the system named is STAPHYLOCOCCUS AUREUS NCTC10649M. The conditions noted are these: BHI agar, 35-37 °C for 20 to 24 hours, unit assumed. As to the method:
as §1, §2, §3

A further experiment has as its system EN[…] ATCC 8043. To be noted: ENTEROCOCCUS FAECIUM ATCC 8043; BHI agar, 35-37 °C for 20 to 24 hours; unit assumed. As for the experimental part: as §1, §2, §3
The subject of experiment [5] is STAPHYLOCOCCUS AUREUS 1775. The conditions noted are these: BHI agar, 35-37 °C for 20 to 24 hours, unit assumed. As to the method: as §1, §2, §3
In experiment [6] the test system is STREPTOCOCCUS PYOGENES EES61. The conditions noted are these: STREPTOCOCCUS PYOGENES EES61; BHI agar, 35-37 °C for 20 to 24 hours; unit assumed. As for the experimental part: as §1, §2, §3
The subject of experiment [7] is STAPHYLOCOCCUS AUREUS A5177. To be noted: BHI agar, 35-37 °C for 20 to 24 hours, unit assumed. As for the experimental part:
as §1, §2, §3

For experiment [8], the system named is STAPHYLOCOCCUS AUREUS CMX 553. The conditions noted are these: BHI agar, 35-37 °C for 20 to 24 hours, unit assumed. As to the method: as §1, §2, §3
Another experiment has as its system M[…] ATCC 9341. The conditions noted are these: MICROCOCCUS LUTEUS ATCC 9341; BHI agar, 35-37 °C for 20 to 24 hours; unit assumed. As to the method:
as §1, §2, §3

Experiment [9] concerns STAPHYLOCOCCUS EPIDERMIDIS 3519. The conditions noted are these: STAPHYLOCOCCUS EPIDERMIDIS 3519; BHI agar, 35-37 °C for 20 to 24 hours; unit assumed. As for the experimental part:
as §1, §2, §3

Another experiment concerns ESCHERICHIA COLI JUHL. The conditions noted are these: ESCHERICHIA COLI JUHL; BHI agar, 35-37 °C for 20 to 24 hours; unit assumed. As for the experimental part: as §1, §2, §3
In another experiment the test system is STR[…] 508. The conditions noted are these: STREPTOCOCCUS AGALACTIAE CMX 508; BHI agar, 35-37 °C for 20 to 24 hours; unit assumed. As to the method:
as §1, §2, §3

A further experiment concerns CANDIDA ALBICANS CCH 442. To be noted: BHI agar, 35-37 °C for 20 to 24 hours, unit assumed. As to the method:
as §1, §2, §3

The test system of experiment [10] is STAPHYLOCOCCUS AUREUS A-5278. To be noted: BHI agar, 35-37 °C for 20 to 24 hours, unit assumed. As for the experimental part: as §1, §2, §3
Experiment [11] concerns STREPTOCOCCUS BOVIS A-5169. To be noted: STREPTOCOCCUS BOVIS A-5169; BHI agar, 35-37 °C for 20 to 24 hours; unit assumed. As to the method: as §1, §2, §3
In a further experiment the test system is N. ASTEROIDES ATCC 9970. To be noted: BHI agar, 35-37 °C for 20 to 24 hours, unit assumed. As to the method: as §1, §2, §3
The subject of experiment [12] is STREPTOCOCCUS PYOGENES 930. To be noted: STREPTOCOCCUS PYOGENES 930; BHI agar, 35-37 °C for 20 to 24 hours; unit assumed. As to the method:
as §1, §2, §3

Experiment [13] has as its system STREPTOCOCCUS PYOGENES PIU 2548. To be noted: STREPTOCOCCUS PYOGENES PIU 2548; BHI agar, 35-37 °C for 20 to 24 hours; unit assumed. As for the experimental part:
as §1, §2, §3

The record followed here is patent EP0984975B1, “MULTICYCLIC ERYTHROMYCIN DERIVATIVES” (Abbott Laboratories, priority 1997, dated 1998).

As to `CC[C@H]1OC(=O)[C@H](C)C(=O)[C@H](C)[C@@H](O[C@@H]2O[C@H](C)C[C@H](N(C)C)[C@H]2O)[C@](C)(OC)C[C@@H](C)C2=Nc3cccnc3N3C(=O)O[C@@]1(C)[C@H]3[C@H]2C` [Ex 7, Compound of Formula (II): R^1 is methoxy; R^2 is H, R^3 is absent, the double bond is present, B, D and E are H, and Y and Z taken together with the atom to which they are attached form an oxo group], the Antibacterial Activity (MIC's) in the experiment with ESCHERICHIA COLI DC-2 is greater than 100 µg/mL; with M[…] ATCC 4698 it was 0.39 µg/mL; in experiment [1], 0.39 µg/mL; in experiment [2], 0.39 µg/mL; in the experiment on ESCHERICHIA COLI SS, 0.78 µg/mL; in experiment [3], 3.1 µg/mL. Besides, the Antibacterial Activity (MIC's) in [4] is 0.39 µg/mL; with EN[…] ATCC 8043, 0.1 µg/mL; in experiment [5], greater than 100 µg/mL; in experiment [6] it was 0.05 µg/mL; in experiment [7] it was 0.39 µg/mL; in experiment [8] it was 0.39 µg/mL. The Antibacterial Activity (MIC's) in the experiment on M[…] ATCC 9341 was 0.05 µg/mL; in experiment [9], 0.39 µg/mL; with ESCHERICHIA COLI JUHL it was greater than 100 µg/mL; in the experiment with STR[…] 508, 0.05 µg/mL; with CANDIDA ALBICANS CCH 442, greater than 100 µg/mL; in experiment [10] it was greater than 100 µg/mL. In addition, the Antibacterial Activity (MIC's) in [11] is 0.05 µg/mL; in the experiment with N. ASTEROIDES ATCC 9970 it was 0.1 µg/mL; in [12], greater than 100 µg/mL; in experiment [13], 0.39 µg/mL.
For `C=CCO[C@]1(C)C[C@@H](C)C2=Nc3ccccc3N3C(=O)O[C@](C)([C@@H](CC)OC(=O)[C@H](C)C(=O)[C@H](C)[C@H]1O[C@@H]1O[C@H](C)C[C@H](N(C)C)[C@H]1O)[C@H]3[C@H]2C` [Ex 8, Compound of Formula (I): R^1 is allyloxy; R^2 is H, R^3 is absent, the double bond is present, A, B, D and E are H, and Y and Z taken together with the atom to which they are attached form an oxo group], the Antibacterial Activity (MIC's) in the experiment on ESCHERICHIA COLI DC-2 was greater than 100 µg/mL; in the experiment on M[…] ATCC 4698 it was 1.56 µg/mL; in [1], 0.78 µg/mL; in experiment [2], 0.78 µg/mL; in the experiment on ESCHERICHIA COLI SS, 12.5 µg/mL; in experiment [3], 6.2 µg/mL. For the same compound, the Antibacterial Activity (MIC's) in experiment [4] was 0.78 µg/mL; in the experiment on EN[…] ATCC 8043 it was 0.78 µg/mL; in [5], greater than 100 µg/mL; in [6], 0.39 µg/mL; in [7] it was 0.78 µg/mL; in [8] it was 0.78 µg/mL. The Antibacterial Activity (MIC's) is 0.78 µg/mL in the experiment with M[…] ATCC 9341; 1.56 µg/mL in experiment [9]; greater than 100 µg/mL in the experiment with ESCHERICHIA COLI JUHL; 0.39 µg/mL in the experiment with STR[…] 508; greater than 100 µg/mL in the experiment with CANDIDA ALBICANS CCH 442; greater than 100 µg/mL in experiment [10]. In addition, the Antibacterial Activity (MIC's) in experiment [11] was 0.1 µg/mL; in the experiment with N. ASTEROIDES ATCC 9970, 3.1 µg/mL; in experiment [12] it was greater than 100 µg/mL; in experiment [13], 0.78 µg/mL.
